Assay results from patent US20260083865A1, “PROSTATE SPECIFIC MEMBRANE ANTIGEN (PSMA) LIGANDS AND USE THEREOF” (priority 2022, published 2026).
Numbered stars: 1 amine (or outer) side, 2 acyl side, 3 side chain; on linkers, the order of the positions; unused ones are H or OH. Bridge positions count the residues as written; N and C are the ends. Square brackets hold non-standard residues; d marks the D form. Side chains are listed from the residue outwards. Peptide text beside a SMILES is read from it. * marks the point of attachment. TtdsdLys(DOTA)NH2 = NC(=O)[C@@H](CCCCNC(=O)CN1CCN(CC(=O)O)CCN(CC(=O)O)CCN(CC(=O)O)CC1)NC(=O)CCC(=O)NCCCOCCOCCOCCCN*; X7 = O=C(O)CN1CCN(CC(=O)O)CCN(CC(=O)NC2CCN(CC(=O)*)CC2)CCN(CC(=O)O)CC1; X3 = O=C(O)CN1CCN(CC(=O)O)CCN(CC(=O)NCCCOCCOCCOCCCN*)CCN(CC(=O)O)CC1; DOTA = O=C(O)CN1CCN(CC(=O)O)CCN(CC(=O)*)CCN(CC(=O)O)CC1; Phe(3-CN) = N#Cc1cccc(C[C@H](N)C(=O)O)c1; Phe(3-Cl) = N[C@@H](Cc1cccc(Cl)c1)C(=O)O; Phe(4-Cl) = N[C@@H](Cc1ccc(Cl)cc1)C(=O)O; Arg(Me) = CNC(=N)NCCC[C@H](N)C(=O)O; Ethylenediamine = C(CN[*:2])N[*:1]; Isobutyryl(2-OH) = CC(C)(O)C(=O)*; X1 = O=C(CC1CCN([*:1])CC1)[*:2]; Lys(Me) = CNCCCC[C@H](N)C(=O)O; Suc = O=C(CCC(=O)[*:2])[*:1]; Tle = CC(C)(C)[C@H](N)C(=O)O; 4Amb = NCc1ccc(C(=O)O)cc1; 4Abz = Nc1ccc(C(=O)O)cc1; Nle = CCCC[C@H](N)C(=O)O; Hexanoyl = CCCCCC(=O)*; Aib = CC(C)(N)C(=O)O; CO = O=C([*:1])[*:2]; NHBu = CCCCN*

Key:
[1] = target: T1, PSMA-expressing C4-2 cells (Homo sapiens, UniProt Q04609); assay: FACS binding assay (competition with 50 nM PSM-0183); conditions: pIC50 category of FACS binding, C4-2 cells; read-out: pIC50 [C4-2] CAT (converted)
T1 construct: PSMA-expressing C4-2 cells (ATCC, Cat. No. CRL-3314) were cultured in RPMI-1640; host or cells: C4-2 cells
Outline: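 Competition format: fluorescent tracer PSM-0183 (50 nM) displaced from PSMA on C4-2 cells by a test compound titration over 1 h at 4 °C. Bound tracer was quantified as flow-cytometric AF488 median fluorescence after washing. Four-parameter logistic fits of MFI data gave IC50 and pIC50.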

[2] = target: T2, Fc-fusion protein of human PSMA (hPSMA-Fc) (Homo sapiens, UniProt Q04609); assay: Surface plasmon resonance assay (Biacore T200, single cycle kinetic); type: binding; conditions: pKD category for PSMA SPR activity assay, hPSMA-Fc, 25° C.; read-out: pKD CAT (converted)
T2 construct: purchased Acro Biosystems PSA-H5264
Outline: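 KD, expressed as pKD, came from 1:1 Langmuir fits of reference- and buffer-blank-subtracted SPR data. The runs were single-cycle kinetics at 25° C in HBST/0.1% DMSO over human PSMA-Fc, captured to ~1000 RU on a peptide-coated CM5 surface and regenerated with 10 mM glycine pH 1.5.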

T1 sequence (Q04609 whole entry): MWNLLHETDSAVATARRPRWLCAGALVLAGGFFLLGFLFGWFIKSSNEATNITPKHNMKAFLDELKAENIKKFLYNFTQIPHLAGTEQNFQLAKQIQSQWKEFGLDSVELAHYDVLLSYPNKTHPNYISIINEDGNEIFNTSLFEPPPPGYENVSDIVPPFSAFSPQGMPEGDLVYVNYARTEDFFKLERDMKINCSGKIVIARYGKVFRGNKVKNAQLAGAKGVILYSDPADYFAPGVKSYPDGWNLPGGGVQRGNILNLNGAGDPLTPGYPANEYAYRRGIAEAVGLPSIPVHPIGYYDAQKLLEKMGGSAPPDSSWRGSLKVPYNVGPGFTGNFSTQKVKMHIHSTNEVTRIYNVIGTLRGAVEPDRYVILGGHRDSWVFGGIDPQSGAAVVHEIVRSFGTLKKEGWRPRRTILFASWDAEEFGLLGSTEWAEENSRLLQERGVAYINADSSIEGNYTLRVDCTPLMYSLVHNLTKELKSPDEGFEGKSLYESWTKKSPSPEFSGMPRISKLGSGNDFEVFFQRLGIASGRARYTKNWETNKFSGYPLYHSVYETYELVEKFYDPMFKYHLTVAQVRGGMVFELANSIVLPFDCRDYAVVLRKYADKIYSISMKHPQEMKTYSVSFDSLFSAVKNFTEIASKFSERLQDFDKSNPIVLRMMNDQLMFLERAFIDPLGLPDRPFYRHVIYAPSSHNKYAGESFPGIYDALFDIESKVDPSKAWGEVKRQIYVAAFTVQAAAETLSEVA
T2 sequence (Q04609 44-750 limits assumed): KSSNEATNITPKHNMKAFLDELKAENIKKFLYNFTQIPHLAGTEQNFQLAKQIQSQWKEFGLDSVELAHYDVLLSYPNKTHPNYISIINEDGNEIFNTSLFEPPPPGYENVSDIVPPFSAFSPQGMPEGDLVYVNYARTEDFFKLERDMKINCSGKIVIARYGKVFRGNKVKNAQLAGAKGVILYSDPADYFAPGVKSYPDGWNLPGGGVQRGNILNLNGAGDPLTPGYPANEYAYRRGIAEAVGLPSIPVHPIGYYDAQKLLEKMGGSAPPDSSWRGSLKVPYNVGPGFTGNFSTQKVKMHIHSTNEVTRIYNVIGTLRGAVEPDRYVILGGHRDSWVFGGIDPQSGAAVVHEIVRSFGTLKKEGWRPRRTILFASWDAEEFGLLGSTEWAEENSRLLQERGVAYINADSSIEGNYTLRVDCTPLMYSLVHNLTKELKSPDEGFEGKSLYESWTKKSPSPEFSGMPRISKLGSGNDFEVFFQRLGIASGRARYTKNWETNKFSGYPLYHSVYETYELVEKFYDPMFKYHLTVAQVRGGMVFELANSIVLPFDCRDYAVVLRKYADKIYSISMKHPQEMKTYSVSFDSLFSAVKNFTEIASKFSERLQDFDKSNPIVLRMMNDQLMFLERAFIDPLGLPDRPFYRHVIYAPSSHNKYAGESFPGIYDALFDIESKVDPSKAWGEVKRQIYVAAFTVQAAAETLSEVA

SMILES | IC50 [1] | Kd [2]
CC(C)(NC(=O)c1ccc(CNC(=O)CN2CCN(CC(=O)O)CCN(CC(=O)O)CCN(CC(=O)O)CC2)cc1)C(=O)N[C@@H](Cc1ccccc1)C(=O)N[C@H]1CSSC[C@@H](C(=O)N[C@H](C(N)=O)C(C)(C)C)NC(=O)[C@H](CC(N)=O)NC(=O)C(C)(C)NC(=O)[C@H](CCCNC(=N)N)NC(=O)[C@H](CCCCN)NC1=O [PSM-0458, DOTA-Pamb-Aib-Phe-[Cys-Lys-Arg-Aib-Asn-Cys]-Tle-NH2] ({DOTA-4Amb}-[Aib]FCKR[Aib]NC[Tle]-NH2; disulfide 3-8) | < 200 nM | 12.6 to 126 nM
CNCCCC[C@@H]1NC(=O)[C@@H](NC(=O)[C@H](Cc2cccc(C#N)c2)NC(=O)C(C)(C)NC(=O)[C@@H](NC(=O)CC2CCN(C(=O)CN3CCN(CC(=O)O)CCN(CC(=O)O)CCN(CC(=O)O)CC3)CC2)[C@@H](C)O)CSSC[C@@H](C(=O)N[C@H](C(N)=O)C(C)(C)C)NC(=O)[C@H](CC(N)=O)NC(=O)C(C)(C)NC(=O)[C@H](CCCNC(=N)NC)NC1=O [PSM-0459, DOTA-Cmp-Thr-Aib-Mnf-[Cys-Lys(Me)-Arg(Me)-Aib-Asn-Cys]-Tle-NH2] ({DOTA}-[X1]T[Aib][Phe(3-CN)]C[Lys(Me)][Arg(Me)][Aib]NC[Tle]-NH2; disulfide 5-10) | 200 to 1260 nM | 12.6 to 126 nM
CCCC[C@H](NC(=O)[C@@H]1CSSC[C@H](NC(=O)[C@H](Cc2ccccc2)NC(=O)[C@H](C)NC(=O)[C@@H](NC(C)=O)[C@@H](C)O)C(=O)N[C@@H](CCCCN)C(=O)N[C@@H](CCCNC(=N)N)C(=O)N2CCC[C@H]2C(=O)N[C@@H](CC(N)=O)C(=O)N1)C(=O)N[C@H](C(=O)N[C@@H](CC(=O)O)C(N)=O)[C@@H](C)O [PSM-0460, Ac-Thr-Ala-Phe-[Cys-Lys-Arg-Pro-Asn-Cys]-Nle-Thr-Asp-NH2] (Ac-TAFCKRPNC[Nle]TD-NH2; disulfide 4-9) | < 200 nM | 12.6 to 126 nM
C[C@@H](O)[C@H](NC(=O)[C@@H](NC(=O)[C@@H]1CSSC[C@H](NC(=O)[C@H](Cc2ccc(Cl)cc2)NC(=O)C(C)(C)O)C(=O)N[C@@H](CCCCN)C(=O)N[C@@H](CCCNC(=N)N)C(=O)NC(C)(C)C(=O)N[C@@H](CC(N)=O)C(=O)N1)C(C)(C)C)C(N)=O [PSM-0461, Hib-Pcf-[Cys-Lys-Arg-Aib-Asn-Cys]-Tle-Thr-NH2] ({Isobutyryl(2-OH)}-[Phe(4-Cl)]CKR[Aib]NC[Tle]T-NH2; disulfide 2-7) | < 200 nM | 12.6 to 126 nM
CCCCCC(=O)N[C@H](C(=O)NC(C)(C)C(=O)N[C@@H](Cc1ccccc1)C(=O)N[C@H]1CSSC[C@@H](C(=O)N[C@H](C(=O)N[C@H](C(=O)NCCCOCCOCCOCCCNC(=O)CCC(=O)N[C@H](CCCCNC(=O)CN2CCN(CC(=O)O)CCN(CC(=O)O)CCN(CC(=O)O)CC2)C(N)=O)[C@@H](C)O)C(C)(C)C)NC(=O)[C@H](CC(N)=O)NC(=O)[C@H](C)NC(=O)[C@H](CCCNC(=N)N)NC(=O)[C@H](CCCCN)NC1=O)[C@@H](C)O [PSM-0462, Hex-Thr-Aib-Phe-[Cys-Lys-Arg-Ala-Asn-Cys]-Tle-Thr-Ttds-lys(DOTA)-NH2] (Hexanoyl-T[Aib]FCKRANC[Tle]T-{TtdsdLys(DOTA)NH2}; disulfide 4-9) | < 200 nM | < 12.6 nM
CC(=O)N[C@H](C(=O)NC(C)(C)C(=O)N[C@@H](Cc1ccccc1)C(=O)N[C@H]1CSSC[C@@H](C(=O)N[C@H](C(=O)N[C@H](C(N)=O)[C@@H](C)O)C(C)(C)C)NC(=O)[C@H](CC(N)=O)NC(=O)[C@H](CCCCNC(=O)CN2CCC(NC(=O)CN3CCN(CC(=O)O)CCN(CC(=O)O)CCN(CC(=O)O)CC3)CC2)NC(=O)[C@H](CCCNC(=N)N)NC(=O)[C@H](CCCCN)NC1=O)[C@@H](C)O [PSM-0464, Ac-Thr-Aib-Phe-[Cys-Lys-Arg-Lys(DOTA-APAc)-Asn-Cys]-Tle-Thr-NH2] (Ac-T[Aib]FCKRK(X7)NC[Tle]T-NH2; disulfide 4-9) | < 200 nM | < 12.6 nM
CC(=O)N[C@H](C(=O)NC(C)(C)C(=O)N[C@@H](Cc1ccccc1)C(=O)N[C@H]1CSSC[C@@H](C(=O)N[C@H](C(=O)N[C@H](C(N)=O)[C@@H](C)O)C(C)(C)C)NC(=O)[C@H](CC(N)=O)NC(=O)[C@H](CCCCNC(=O)CCC(=O)NCCCOCCOCCOCCCNC(=O)CN2CCN(CC(=O)O)CCN(CC(=O)O)CCN(CC(=O)O)CC2)NC(=O)[C@H](CCCNC(=N)N)NC(=O)[C@H](CCCCN)NC1=O)[C@@H](C)O [PSM-0465, Ac-Thr-Aib-Phe-[Cys-Lys-Arg-Lys(DOTA-Ttds)-Asn-Cys]-Tle-Thr-NH2] (Ac-T[Aib]FCKRK([Suc-X3])NC[Tle]T-NH2; disulfide 4-9) | < 200 nM | < 12.6 nM
CC(=O)NCCCC[C@@H]1NC(=O)[C@@H](NC(=O)[C@H](Cc2ccc(Cl)cc2)NC(=O)C(C)(C)NC(=O)[C@@H](NC(=O)CC2CCN(C(=O)CN3CCN(CC(=O)O)CCN(CC(=O)O)CCN(CC(=O)O)CC3)CC2)[C@@H](C)O)CSSC[C@@H](C(=O)N[C@H](C(=O)N[C@H](C(N)=O)[C@@H](C)O)C(C)(C)C)NC(=O)[C@H](CC(N)=O)NC(=O)C(C)(C)NC(=O)[C@H](CCCNC(=N)N)NC1=O [PSM-0466, DOTA-Cmp-Thr-Aib-Pcf-[Cys-Lys(Ac)-Arg-Aib-Asn-Cys]-Tle-Thr-NH2] ({DOTA}-[X1]T[Aib][Phe(4-Cl)]CK(Ac)R[Aib]NC[Tle]T-NH2; disulfide 5-10) | 200 to 1260 nM | < 12.6 nM
CCCC[C@H](NC(=O)[C@@H]1CSSC[C@H](NC(=O)[C@H](Cc2ccccc2)NC(=O)[C@H](C)NC(=O)[C@H](CO)NC(C)=O)C(=O)N[C@@H](CCCCN)C(=O)N[C@@H](CCCNC(=N)N)C(=O)N[C@@H](C)C(=O)N[C@@H](CC(N)=O)C(=O)N1)C(=O)N[C@H](C(=O)N[C@@H](CC(=O)O)C(N)=O)[C@@H](C)O [PSM-0469, Ac-Ser-Ala-Phe-[Cys-Lys-Arg-Ala-Asn-Cys]-Nle-Thr-Asp-NH2] (Ac-SAFCKRANC[Nle]TD-NH2; disulfide 4-9) | < 200 nM | 12.6 to 126 nM
CCCCNC(=O)N[C@H](C(=O)NC(C)(C)C(=O)N[C@@H](Cc1cccc(Cl)c1)C(=O)N[C@H]1CSSC[C@@H](C(=O)N[C@H](C(=O)N[C@H](C(=O)N2CCC(CC(=O)N[C@H](CCCCNC(=O)CN3CCN(CC(=O)O)CCN(CC(=O)O)CCN(CC(=O)O)CC3)C(N)=O)CC2)[C@@H](C)O)C(C)(C)C)NC(=O)[C@H](CC(N)=O)NC(=O)C(C)(C)NC(=O)[C@H](CCCNC(=N)N)NC(=O)[C@H](CCCCN)NC1=O)[C@@H](C)O [PSM-0470, nBuCAyl-Thr-Aib-Mcf-[Cys-Lys-Arg-Aib-Asn-Cys]-Tle-Thr-Cmp-lys(DOTA)-NH2] ({NHBu-CO}-T[Aib][Phe(3-Cl)]CKR[Aib]NC[Tle]T[X1][dK](DOTA)-NH2; disulfide 4-9) | < 200 nM | < 12.6 nM
CC(=O)N[C@H](C(=O)NC(C)(C)C(=O)N[C@@H](Cc1ccccc1)C(=O)N[C@H]1CSSC[C@@H](C(=O)N[C@H](C(=O)N[C@H](C(=O)Nc2ccc(C(=O)N[C@H](CCCCNC(=O)CN3CCN(CC(=O)O)CCN(CC(=O)O)CCN(CC(=O)O)CC3)C(N)=O)cc2)[C@@H](C)O)C(C)(C)C)NC(=O)[C@H](CC(N)=O)NC(=O)C(C)(C)NC(=O)[C@H](CCCNC(=N)N)NC(=O)[C@H](CCCCN)NC1=O)[C@@H](C)O [PSM-0471, Ac-Thr-Aib-Phe-[Cys-Lys-Arg-Aib-Asn-Cys]-Tle-Thr-Pab-lys(DOTA)-NH2] (Ac-T[Aib]FCKR[Aib]NC[Tle]T[4Abz][dK](DOTA)-NH2; disulfide 4-9) | < 200 nM | < 12.6 nM
CNCCCC[C@@H]1NC(=O)[C@@H](NC(=O)[C@H](Cc2ccc(Cl)cc2)NC(=O)C(C)(C)NC(C)=O)CSSC[C@@H](C(=O)N[C@H](C(=O)NCCNC(=O)CN2CCN(CC(=O)O)CCN(CC(=O)O)CCN(CC(=O)O)CC2)C(C)(C)C)NC(=O)[C@H](CC(N)=O)NC(=O)C(C)(C)NC(=O)[C@H](CCCNC(=N)N)NC1=O [PSM-0472, Ac-Aib-Pcf-[Cys-Lys(Me)-Arg-Aib-Asn-Cys]-Tle-en-DOTA] (Ac-[Aib][Phe(4-Cl)]C[Lys(Me)]R[Aib]NC[Tle]-{Ethylenediamine-DOTA}; disulfide 3-8) | < 200 nM | < 12.6 nM
CCCC[C@H](NC(=O)[C@@H]1CSSC[C@H](NC(=O)[C@H](Cc2ccccc2)NC(=O)[C@H](C)NC(=O)[C@@H](NC(C)=O)[C@@H](C)O)C(=O)N[C@@H](CCCCN)C(=O)N[C@@H](CCCNC(=N)N)C(=O)N[C@H](C)C(=O)N[C@@H](CC(N)=O)C(=O)N1)C(=O)N[C@H](C(=O)N[C@@H](CC(=O)O)C(N)=O)[C@@H](C)O [PSM-0474, Ac-Thr-Ala-Phe-[Cys-Lys-Arg-ala-Asn-Cys]-Nle-Thr-Asp-NH2] | 1260 to 3160 nM | > 501 nM
CCCC[C@H](NC(=O)[C@@H]1CSSC[C@H](NC(=O)[C@H](Cc2ccccc2)NC(=O)[C@H](C)NC(=O)[C@@H](NC(C)=O)[C@@H](C)O)C(=O)N[C@@H](C)C(=O)N[C@@H](CCCNC(=N)N)C(=O)N[C@@H](C)C(=O)N[C@@H](CC(N)=O)C(=O)N1)C(=O)N[C@H](C(=O)N[C@@H](CC(=O)O)C(N)=O)[C@@H](C)O [PSM-0475, Ac-Thr-Ala-Phe-[Cys-Ala-Arg-Ala-Ass-Cys]-Nle-Thr-Asp-NH2] (Ac-TAFCARANC[Nle]TD-NH2; disulfide 4-9) | 1260 to 3160 nM | > 501 nM
